Experimental data published in US4261892A, “2,4,6-Tris-(substituted-amino)-s-triazines” (American Cyanamid Company, priority 1979, dated 1981).
Like-named read-outs stand apart in the source and are kept apart here.

Legend:
[1] = system: Adjuvant Arthritis In Rats; experiment: Adjuvant-induced arthritis in rats (chronic inflammation accompanied by joint destruction); type: in vivo, Royal Hart, Wistar strain rats; conditions: for inhibition in vivo at 0.25 mg/kg / inhibition in vivo at 0.5 mg/kg / inhibition in vivo at 2 mg/kg / inhibition in vivo at 1 mg/kg / inhibition in vivo at 50 mg/kg / inhibition in vivo at 100 mg/kg / inhibition in vivo at 200 mg/kg / inhibition in vivo at 400 mg/kg: Rattus norvegicus
Description: Groups of three Royal Hart, Wistar strain rats weighing 200±10 grams each were injected intradermally in the right hind paw with Freund's adjuvant (dried human tubercle bacilli in a mineral oil vehicle) at a dose of 2 mg./kg. of body weight. […] On the 14th and 21st day post challenge the diameter of the injected paw (primary lesion) was measured by micrometer caliper. The volume of inflamed paws were estimated from these measurements and the results are expressed as percent inhibition of swelling as compared to controls. At the same time, the other inflamed sites, such as ears, paws and tail (secondary lesions) were observed and each rat was graded as to degree of inflammation and swelling present. The grading is based on a scale of 0 to 24 where 0 represents a complete absence of induced arthritic nodules and 24 represents the maximum degree of inflammation. The mean grade for each treated group is calculated and the effects of each compound are expressed as percent inhibition of the control grade.

[2] = system: arthritic paw swelling / joint and bone deterioration; conditions: literature (Wong et al., Bobalick et al.); cited from earlier work
[3] = oral 0.25 mg./kg. once daily days 0-13, Day 14
[4] = oral 0.25 mg./kg. once daily days 0-13, Day 21
[5] = oral 0.5 mg./kg. once daily days 0-13, Day 14
[6] = oral 0.5 mg./kg. once daily days 0-13, Day 21
[7] = oral 1 mg./kg. once daily days 0-13, Day 14
[8] = oral 1 mg./kg. once daily days 0-13, Day 21
[9] = oral 2 mg./kg. once daily days 0-13, Day 14
[10] = oral 2 mg./kg. once daily days 0-13, Day 21
[11] = oral 50 mg./kg. once daily days 0-13, Day 14
[12] = oral 50 mg./kg. once daily days 0-13, Day 21
[13] = oral 100 mg./kg. once daily days 0-13, Day 14
[14] = oral 100 mg./kg. once daily days 0-13, Day 21
[15] = oral 200 mg./kg. once daily days 0-13, Day 14
[16] = oral 200 mg./kg. once daily days 0-13, Day 21
[17] = oral 400 mg./kg. once daily days 0-13, Day 14
[18] = oral 400 mg./kg. once daily days 0-13, Day 21

COc1ccc2c(c1)c(CC(=O)O)c(C)n2C(=O)c1ccc(Cl)cc1 [Indomethacin]
inhibition in vivo at 0.25 mg/kg ([1]; 336 h, oral 0.25 mg./kg. once daily days 0-13, Day 14, read-out: % Inhibition of Swelling (primary lesion) Day 14): 30%
inhibition in vivo at 0.5 mg/kg ([1]; 336 h, oral 0.5 mg./kg. once daily days 0-13, Day 14, read-out: % Inhibition of Swelling (primary lesion) Day 14): 40%
inhibition in vivo at 2 mg/kg ([1]; 336 h, oral 2 mg./kg. once daily days 0-13, Day 14, read-out: % Inhibition of Swelling (primary lesion) Day 14): 51%
inhibition in vivo at 0.25 mg/kg ([1]; 504 h, oral 0.25 mg./kg. once daily days 0-13, Day 21, read-out: % Inhibition of Swelling (primary lesion) Day 21): 4%
inhibition in vivo at 0.5 mg/kg ([1]; 504 h, oral 0.5 mg./kg. once daily days 0-13, Day 21, read-out: % Inhibition of Swelling (primary lesion) Day 21): 20%
inhibition in vivo at 1 mg/kg ([1]; 504 h, oral 1 mg./kg. once daily days 0-13, Day 21, read-out: % Inhibition of Swelling (primary lesion) Day 21): 19%
inhibition in vivo at 2 mg/kg ([1]; 504 h, oral 2 mg./kg. once daily days 0-13, Day 21, read-out: % Inhibition of Swelling (primary lesion) Day 21): 24%
inhibition in vivo at 1 mg/kg ([1]; po, 336 h, read-out: % Inhibition of Swelling (primary lesion) Day 14): 46%
% Inhibition of Control Grade (secondary lesion) Day 14 [1, 3]: 22%
Mean Weight Gain (grams) Day 14 [1, 3]: 51 grams
% Inhibition of Control Grade (secondary lesion) Day 21 [1, 4]: 4%
Mean Weight Gain (grams) Day 21 [1, 4]: 57 grams
Dead/Treated at 21 Days ([1]; oral 0.25 mg./kg. once daily days 0-13): 0/9
% Inhibition of Control Grade (secondary lesion) Day 14 [1, 5]: 25%
Mean Weight Gain (grams) Day 14 [1, 5]: 53 grams
% Inhibition of Control Grade (secondary lesion) Day 21 [1, 6]: 17%
Mean Weight Gain (grams) Day 21 [1, 6]: 51 grams
Dead/Treated at 21 Days ([1]; oral 0.5 mg./kg. once daily days 0-13): 5/54
% Inhibition of Control Grade (secondary lesion) Day 14 [1, 7]: 34%
Mean Weight Gain (grams) Day 14 [1, 7]: 63 grams
% Inhibition of Control Grade (secondary lesion) Day 21 [1, 8]: 20%
Mean Weight Gain (grams) Day 21 [1, 8]: 65 grams
Dead/Treated at 21 Days ([1]; oral 1 mg./kg. once daily days 0-13): 9/54
% Inhibition of Control Grade (secondary lesion) Day 14 [1, 9]: 38%
Mean Weight Gain (grams) Day 14 [1, 9]: 68 grams
% Inhibition of Control Grade (secondary lesion) Day 21 [1, 10]: 25%
Mean Weight Gain (grams) Day 21 [1, 10]: 68 grams
Dead/Treated at 21 Days ([1]; oral 2 mg./kg. once daily days 0-13): 8/57
arthritic paw swelling [2]: inhibit arthritic paw swelling
joint and bone deterioration [2]: prevent joint and bone deterioration

CC(=O)Oc1ccccc1C(=O)O [Aspirin]
inhibition in vivo at 50 mg/kg ([1]; 336 h, oral 50 mg./kg. once daily days 0-13, Day 14, read-out: % Inhibition of Swelling (primary lesion) Day 14): 23%
inhibition in vivo at 100 mg/kg ([1]; 336 h, oral 100 mg./kg. once daily days 0-13, Day 14, read-out: % Inhibition of Swelling (primary lesion) Day 14): 36%
inhibition in vivo at 200 mg/kg ([1]; 336 h, oral 200 mg./kg. once daily days 0-13, Day 14, read-out: % Inhibition of Swelling (primary lesion) Day 14): 48%
inhibition in vivo at 400 mg/kg ([1]; 336 h, oral 400 mg./kg. once daily days 0-13, Day 14, read-out: % Inhibition of Swelling (primary lesion) Day 14): 73%
inhibition in vivo at 50 mg/kg ([1]; 504 h, oral 50 mg./kg. once daily days 0-13, Day 21, read-out: % Inhibition of Swelling (primary lesion) Day 21): 3%
inhibition in vivo at 100 mg/kg ([1]; 504 h, oral 100 mg./kg. once daily days 0-13, Day 21, read-out: % Inhibition of Swelling (primary lesion) Day 21): 13%
inhibition in vivo at 200 mg/kg ([1]; 504 h, oral 200 mg./kg. once daily days 0-13, Day 21, read-out: % Inhibition of Swelling (primary lesion) Day 21): 27%
inhibition in vivo at 400 mg/kg ([1]; 504 h, oral 400 mg./kg. once daily days 0-13, Day 21, read-out: % Inhibition of Swelling (primary lesion) Day 21): 48%
% Inhibition of Control Grade (secondary lesion) Day 14 [1, 11]: 12%
Mean Weight Gain (grams) Day 14 [1, 11]: 56 grams
% Inhibition of Control Grade (secondary lesion) Day 21 [1, 12]: 9%
Mean Weight Gain (grams) Day 21 [1, 12]: 44 grams
Dead/Treated at 21 Days ([1]; oral 50 mg./kg. once daily days 0-13): 2/21
% Inhibition of Control Grade (secondary lesion) Day 14 [1, 13]: 19%
Mean Weight Gain (grams) Day 14 [1, 13]: 48 grams
% Inhibition of Control Grade (secondary lesion) Day 21 [1, 14]: 8%
Mean Weight Gain (grams) Day 21 [1, 14]: 53 grams
Dead/Treated at 21 Days ([1]; oral 100 mg./kg. once daily days 0-13): 18/63
% Inhibition of Control Grade (secondary lesion) Day 14 [1, 15]: 26%
Mean Weight Gain (grams) Day 14 [1, 15]: 40 grams
% Inhibition of Control Grade (secondary lesion) Day 21 [1, 16]: 17%
Mean Weight Gain (grams) Day 21 [1, 16]: 44 grams
Dead/Treated at 21 Days ([1]; oral 200 mg./kg. once daily days 0-13): 10/66
% Inhibition of Control Grade (secondary lesion) Day 14 [1, 17]: 58%
Mean Weight Gain (grams) Day 14 [1, 17]: 41 grams
% Inhibition of Control Grade (secondary lesion) Day 21 [1, 18]: 45%
Mean Weight Gain (grams) Day 21 [1, 18]: 55 grams
Dead/Treated at 21 Days ([1]; oral 400 mg./kg. once daily days 0-13): 18/57
